Patent US20110020518A1, “TASTE MODIFYING PRODUCT” (priority 2008, published 2011)

Tested on: kokumi/umami taste
Assay: Evaluation of alkylpyridines: taste panel of 8 trained panelists, samples in 0.3% aqueous NaCl
Format: in vivo
Conditions: scale 0 (no effect) to 10 (extremely strong kokumi/umami effect)
Description: Alkylpyridines shown in the following table were prepared by firstly being diluted into propylene glycol solvent in order to provide a 10% solution of the alkylpyridine. Each solution was then diluted using a 0.3% aqueous solution of NaCl, heated if necessary to achieve better dissolution, to a concentration of between 10 ppm and 30 ppm of the alkylpyridine. The samples were then stored at ambient temperature.
A panel consisting of 8 trained panelists evaluated the samples for taste properties on a scale of 0 to 10 where 0 denoted no kokumi/umami effect and 10 denoted extremely strong kokumi/umami effect.

Row | SMILES | Kokumi/Umami taste intensity (10 ppm in 0.3% aqueous NaCl) | other results
1 | CCCCCCCCCc1ccccn1 [Compound of ex. 3, 2-nonylpyridine] | 1 | –
2 | CCCCCCc1ccccn1 [2-Hexylpyridine] | 7 | –
3 | CCCCCCCCc1ccccn1 [Compound of ex. 2, 2-octylpyridine] | 2 | –
4 | c1ccncc1 [Pyridine, reference compound] | – | Kokumi/Umami taste intensity (30 ppm in 0.3% aqueous NaCl): 0
5 | Cc1ccccn1 [2-picoline, reference compound] | – | Kokumi/Umami taste intensity (20 ppm in 0.3% aqueous NaCl): 0
6 | CCCCCCCCCCCc1ccccn1 [Compound of ex. 4, 2-undecylpyridine] | 0 | –
7 | CCCCCCCCCCCCc1ccccn1 [Compound of ex. 5, 2-dodecylpyridine] | 0 | –
8 | CCCCCCCc1ccccn1 [Compound of ex. 1, 2-heptylpyridine] | 7 | –
9 | CCCCCc1cc(C)ccn1 [Compound of ex. 6, 4-methyl-2-pentylpyridine] | 0 | –
10 | CCc1ccccn1 [2-Ethylpyridine, reference compound] | 0 | –
11 | CCCc1ccccn1 [2-Propylpyridine, reference compound] | 0 | –
